Measured values reported in PubChem BioAssay (NCI).
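Five concentrations, 48 hours, 96-well plates. GI50 = concentration required for 50% inhibition of growth. The concentration for full growth arrest is given as TGI.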

Tests used:
Assay in all cases: NCI tumour cell line growth inhibition, 48 h
786-0 renal = tested on: 786-0 renal
A498 renal = tested on: A498 renal
A549 NSCLC = tested on: A549 NSCLC
ACHN renal = tested on: ACHN renal
BT-549 breast = tested on: BT-549 breast
CAKI-1 renal = tested on: CAKI-1 renal
CCRF-CEM leukemia = tested on: CCRF-CEM leukemia
COLO 205 colon = tested on: COLO 205 colon
DU-145 prostate = tested on: DU-145 prostate
HCC-2998 colon = tested on: HCC-2998 colon
HCT-116 colon = tested on: HCT-116 colon
HCT-15 colon = tested on: HCT-15 colon
HL-60(TB) leukemia = tested on: HL-60(TB) leukemia
HOP-62 NSCLC = tested on: HOP-62 NSCLC
HOP-92 NSCLC = tested on: HOP-92 NSCLC
HS 578T breast = tested on: HS 578T breast
HT29 colon = tested on: HT29 colon
IGROV1 ovarian = tested on: IGROV1 ovarian
K-562 leukemia = tested on: K-562 leukemia
KM12 colon = tested on: KM12 colon
LOX IMVI melanoma = tested on: LOX IMVI melanoma
M14 melanoma = tested on: M14 melanoma
MALME-3M melanoma = tested on: MALME-3M melanoma
MCF7 breast = tested on: MCF7 breast
MDA-MB-231 breast = tested on: MDA-MB-231 breast
MDA-MB-435 = tested on: MDA-MB-435
MOLT-4 leukemia = tested on: MOLT-4 leukemia
NCI-H226 lung = tested on: NCI-H226 lung
NCI-H23 lung = tested on: NCI-H23 lung

COc1cccc(C(=O)c2sc(Nc3ccc(N4CCN(C(C)C)CC4)cc3)nc2N)c1
GI50 (786-0 renal): 1610 nM | TGI (786-0 renal): 5.76 µM | GI50 (A498 renal): 2330 nM | TGI (A498 renal): 8.24 µM | GI50 (A549 NSCLC): 1220 nM | TGI (A549 NSCLC): 12.5 µM | GI50 (ACHN renal): 596 nM | TGI (ACHN renal): > 25 µM | GI50 (BT-549 breast): 3.62 µM | TGI (BT-549 breast): 7.55 µM | GI50 (CAKI-1 renal): 1010 nM | TGI (CAKI-1 renal): > 8.2 µM | GI50 (CCRF-CEM leukemia): 788 nM | TGI (CCRF-CEM leukemia): 4.41 µM | GI50 (COLO 205 colon): 694 nM | TGI (COLO 205 colon): 3.53 µM | GI50 (DU-145 prostate): 1140 nM | TGI (DU-145 prostate): > 25 µM | GI50 (HCC-2998 colon): 3.39 µM | TGI (HCC-2998 colon): 10.7 µM | GI50 (HCT-116 colon): 845 nM | TGI (HCT-116 colon): > 25 µM | GI50 (HCT-15 colon): 962 nM | TGI (HCT-15 colon): > 25 µM | GI50 (HL-60(TB) leukemia): 661 nM | TGI (HL-60(TB) leukemia): 2730 nM | GI50 (HOP-62 NSCLC): 1570 nM | TGI (HOP-62 NSCLC): 11.9 µM | GI50 (HOP-92 NSCLC): 545 nM | TGI (HOP-92 NSCLC): 4.38 µM | GI50 (HS 578T breast): 2420 nM | TGI (HS 578T breast): 11.4 µM | GI50 (HT29 colon): 997 nM | TGI (HT29 colon): 12.8 µM | GI50 (IGROV1 ovarian): 2140 nM | TGI (IGROV1 ovarian): > 18.6 µM | GI50 (K-562 leukemia): 3.22 µM | TGI (K-562 leukemia): > 22.1 µM | GI50 (KM12 colon): 889 nM | TGI (KM12 colon): 7.13 µM | GI50 (LOX IMVI melanoma): 1220 nM | TGI (LOX IMVI melanoma): 4.88 µM | GI50 (M14 melanoma): 2960 nM | TGI (M14 melanoma): 7.12 µM | GI50 (MALME-3M melanoma): 3.02 µM | TGI (MALME-3M melanoma): 7.13 µM | GI50 (MCF7 breast): 473 nM | TGI (MCF7 breast): 3.38 µM | GI50 (MDA-MB-231 breast): 1840 nM | TGI (MDA-MB-231 breast): > 19.8 µM | GI50 (MDA-MB-435): 1630 nM | TGI (MDA-MB-435): 5.68 µM | GI50 (MOLT-4 leukemia): 966 nM | TGI (MOLT-4 leukemia): 13.1 µM | GI50 (NCI-H226 lung): 1380 nM | TGI (NCI-H226 lung): > 22.8 µM | GI50 (NCI-H23 lung): 1420 nM
